From ChEMBL document CHEMBL1201862, “PubChem BioAssay data set” (2004) come the findings set out here.

The structures appear in SMILES notation.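 The compound was tested at five concentrations on cells cultured in 96-well plates, with a 48-hour exposure period. Here, GI50 denotes the concentration required for 50% inhibition of growth.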 The source made the active and inactive calls. Rule as the data show it: active = GI50 up to about 1.1 µM and inactive = higher. A value given as a limit tells only on which side of the number the result lay.

Common to all, as to assay: inhibition of tumour cell growth, NCI panel, 48 h
The test system of test [1] is 786-0.
For test [2], the system named is A498.
The subject of test [3] is A549.
The subject of test [4] is BT-549.
Test [5] deals with CAKI-1.
In test [6] the test system is CCRF-CEM.
The test system of test [7] is COLO 205.
Test [8] deals with EKVX.
The subject of test [9] is HCT-116.
Test [10] relates to HOP-92.
In test [11] the test system is Hs-578T.
In test [12] the test system is MDA-N.
Test [13] has as its system OVCAR-3.
Test [14] has as its system PC-3.
Test [15] has as its system SF-295.
In test [16] the test system is SK-MEL-28.
Test [17] deals with SNB-19.
The subject of test [18] is SNB-75.
Test [19] deals with SR.
For test [20], the system named is U-251.

Take `CN(C)CCNC(=O)c1cccc2nc3c(ccc4ccccc43)nc12`: the GI50 in [1] was 2.91 µM (inactive); in test [2] it was 2.95 µM (inactive); in test [3] it was 1.21 µM (inactive); in test [4] it was 10.6 µM (inactive); in [5], 3.37 µM (inactive); in [6], 1.16 µM (inactive). Also, the GI50 in test [7] is 1.6 µM (inactive); in [8], 5.74 µM (inactive); in test [9] it was 1.75 µM (inactive); in test [10], 3.61 µM (inactive); in [11], 3.62 µM (inactive); in [12], 1.72 µM (inactive). Besides, the GI50 in [13] was 7.89 µM (inactive); in test [14] it was 2.79 µM (inactive); in test [15], 2.56 µM (inactive); in [16] it was 2.05 µM (inactive); in test [17], 5.06 µM (inactive); in test [18], 3.9 µM (inactive). Also, the GI50 in test [19] was 0.362 µM (active); in test [20] it was 1.47 µM (inactive).

Consider `COc1ccc2c(c1)-c1c(c3cc(OC)ccc3n1CCCN(C)C)CC2`, for which the GI50 in [1] is 9.04 µM (inactive); in [2] it was 13.4 µM (inactive); in test [3] it was 12.1 µM (inactive); in [4] it was 15.5 µM (inactive); in [5], 12.4 µM (inactive); in test [6], 4.46 µM (inactive). Also, the GI50 in test [7] was 2.02 µM (inactive); in [8], 13.2 µM (inactive); in test [9], 5.2 µM (inactive); in [10], 12.2 µM (inactive); in test [11], 4.29 µM (inactive); in test [12] it was 4.79 µM (inactive). The GI50 in test [13] was 14.1 µM (inactive); in test [14] it was 10.3 µM (inactive); in test [15], 2.62 µM (inactive); in test [16], 5.78 µM (inactive); in [17], 14.6 µM (inactive); in [18], 2.99 µM (inactive). Further, the values for the GI50 in test [19] and in [20] were 5.18 µM (inactive) and 8.67 µM (inactive), respectively.

In the case of `O=C(Nc1noc(-c2ccccc2)n1)c1ccccc1CNc1noc(-c2ccccc2)n1`, the GI50 in test [1], in [2], in [3], in test [4], in test [5] and in test [6] was > 100 µM (inactive) throughout. The GI50 in test [7] was > 100 µM (inactive); in test [8], 76.7 µM (inactive); in [9], > 100 µM (inactive); in test [10], 62.8 µM (inactive); in test [11], > 100 µM (inactive); in test [12] it was > 100 µM (inactive). Moreover, the GI50 in test [13], in test [14], in test [15], in [16], in test [17] and in test [18] was > 100 µM (inactive) throughout. Further, the GI50 in test [19] and in test [20] was > 100 µM (inactive) in each case.

For `COc1c2c(cc3oc(C)cc(=O)c13)OC(=N)C(C(N)=O)C2CC(=O)c1ccc(N)cc1` (stereo not given), the GI50 in test [1], in [2], in [3], in test [4], in [5] and in test [6] was > 100 µM (inactive) throughout. Further, the GI50 in test [7], in [8], in [9], in [10], in test [11] and in test [12] was > 100 µM (inactive) in each case. Further, the GI50 in test [13], in test [14], in test [15], in [16], in test [17] and in test [18] was > 100 µM (inactive) each time. The GI50 in test [19] and in test [20] was > 100 µM (inactive) throughout.

As for `COc1ccc(N2C(=O)C3c4[nH]c5ccc(OC)cc5c4C4CCC(c5ccccc5)CC4C3C2=O)cc1` (stereo not given), the GI50 in test [1] is 2.12 µM (inactive); in [2], 14.2 µM (inactive); in test [3], 12.8 µM (inactive); in [4], 19.6 µM (inactive); in test [5], 14.6 µM (inactive); in [6], 2.27 µM (inactive). The GI50 in [7] is 6.19 µM (inactive); in test [8], 9.08 µM (inactive); in test [9] it was 1.11 µM (active); in test [10], 16.7 µM (inactive); in [11], 1.6 µM (inactive); in test [12], 18.4 µM (inactive). The GI50 in [13] is 16.7 µM (inactive); in [14], 19.2 µM (inactive); in test [15], 7.73 µM (inactive); in test [16], 14.1 µM (inactive); in test [17], 11.9 µM (inactive); in [18], 3.15 µM (inactive). Moreover, the GI50 in [19] was 0.451 µM (active); in test [20], 8.99 µM (inactive).

For the molecule `COC(=O)c1c(OC(C)=O)ccc2c1c1c(OC(C)=O)c3ccccc3c(OC(C)=O)c1n2Cc1cc(OC)cc(OC)c1`, the GI50 was 36.5 µM (inactive) in test [1]; 23.1 µM (inactive) in test [2]; 6 µM (inactive) in test [3]; 6.82 µM (inactive) in test [4]; 32.1 µM (inactive) in test [5]; 6.76 µM (inactive) in test [6]. For the same molecule, the GI50 in [7] was 26.1 µM (inactive); in test [8] it was 2.58 µM (inactive); in test [9], 7.82 µM (inactive); in test [10], 1.8 µM (inactive); in test [11], 14.2 µM (inactive); in test [12], 5.12 µM (inactive). Besides, the GI50 in test [13] is 4.51 µM (inactive); in [14], 4.66 µM (inactive); in test [15], 18.2 µM (inactive); in test [16], 24.4 µM (inactive); in test [17], 9.2 µM (inactive); in test [18], 7.19 µM (inactive). The GI50 is 4.44 µM (inactive) in test [19] and 5.5 µM (inactive) in test [20].

Consider `O=C(O)COc1cc(-c2ccccc2)nc2cc(F)ccc12`, for which the GI50 in test [1], in test [2], in [3], in test [4], in [5] and in [6] was > 100 µM (inactive) in each case. Besides, the GI50 in test [7], in [8], in test [9], in test [10], in test [11] and in test [12] was > 100 µM (inactive) in each case. For the same molecule, the GI50 in test [13], in [14], in test [15], in test [16], in [17] and in test [18] was > 100 µM (inactive) each time. Besides, the GI50 in test [19] and in [20] was > 100 µM (inactive) throughout.
